Reference: patent US20100081679A1, “DIAMINOPYRIMIDINES AS FUNGICIDES” (Bayer CropScience AG, priority 2007, published 2010)
Marks after values point to notes of the source that are not given here.

experiment: logP determination via retention times, calibrated with unbranched alkan-2-ones; type: physicochemical; conditions: HPLC on reversed-phase C 18, EEC Directive 79/831 Annex V.A8; method *: 40° C., 0.1% aqueous formic acid and acetonitrile, linear gradient 10% to 95% acetonitrile

Row | logP | SMILES
1 | 1.53* | CN1CC(=O)N(c2ccc(Nc3ncc(Cl)c(NCC4CC4)n3)cc2)C1=O [compound 523]
2 | 1.92* | COC(=O)Cc1cccc(Nc2ncc(Cl)c(NCC3CC3)n2)c1 [compound 504]
3 | 1.73* | CCN(C(C)=O)c1ccc(Nc2ncc(Cl)c(NCC3CC3)n2)cc1 [compound 506]

same assay, conditions: HPLC on reversed-phase C18, method **: 43° C.; mobile phase 0.1% aqueous phosphoric acid and acetonitrile; linear gradient 10% to 95% acetonitrile

Row | logP | SMILES
4 | 2.52** | O=S(=O)(c1ccc(Nc2ncc(Cl)c(NC3CC3)n2)cc1)N1CCCC1 [compound 307]
5 | 1.58** | O=S(=O)(Cc1ccc(Nc2ncc(Cl)c(NC3CC3)n2)cc1)NC1CC1 [compound 334]

same assay, conditions: HPLC on reversed-phase C18, method *: 40° C., 0.1% aqueous formic acid and acetonitrile, linear gradient 10% to 95% acetonitrile

Row | SMILES | logP
6 | Oc1ccc(Nc2ncc(Cl)c(NC3CC3)n2)cc1F [compound 105] | 1.25*
7 | CC(=O)c1cc(Nc2ncc(Cl)c(NC3CC3)n2)ccc1O [Example 101] | 1.65*
8 | FC(F)C(F)(F)Oc1ccc(Nc2ncc(Cl)c(NC3CC3)n2)cc1 [compound 108] | 2.65*

The next lines start with the values.

Row | logP | SMILES
9 | 2.21* | CCOc1cccc(Nc2ncc(Cl)c(NCC3CC3)n2)c1 [compound 692]
10 | 1.87* | Cc1cccc(C)c1Nc1ncc(Cl)c(NCC2CC2)n1 [compound 682]
11 | 2.13* | CC(=O)c1ccc(Nc2ncc(Cl)c(NCC3CC3)n2)cc1 [compound 678]
12 | 1.54* | C=CC(=O)Nc1cccc(Nc2ncc(Br)c(NC3CC3)n2)c1 [compound 754]
13 | 2.99* | FC(F)(F)c1cnc(Nc2ccccc2)nc1NCC1CC1 [compound 922]

same assay, conditions: HPLC on reversed-phase C18, method *: 40° C.; mobile phase 0.1% aqueous formic acid and acetonitrile; linear gradient 10% to 95% acetonitrile

Row | logP | SMILES
14 | 2.55* | Clc1cnc(Nc2ccc(Br)cc2)nc1NC1CC1 [compound 281]
15 | 5.18* | Clc1cccc(Nc2ncc(Cl)c(NC3(c4ccccc4Cl)CC3)n2)c1 [compound 319]

same assay, conditions: HPLC on reversed-phase C18 column (EEC Directive 79/831 Annex V.A8); method *: 40° C.; 0.1% aqueous formic acid and acetonitrile; linear gradient 10% to 95% acetonitrile

Row | logP | SMILES
16 | 1.93* | Brc1cnc(Nc2ccccc2)nc1NCC1CC1 [compound 189]

same assay, conditions: HPLC reversed-phase C 18, EEC Directive 79/831 Annex V.A8; method *: 40° C., 0.1% aqueous formic acid and acetonitrile, linear gradient 10% to 95% acetonitrile

Row | logP | SMILES
17 | 2.9* | CC(C)(C)c1cccc(Nc2ncc(Cl)c(NC3CC3)n2)c1 [compound 778]

same assay, conditions: method **: HPLC reversed-phase C 18, 43° C., 0.1% aqueous phosphoric acid and acetonitrile, linear gradient 10% to 95% acetonitrile

Row | logP | SMILES
18 | 2.04** | O=C1OCCN1c1ccc(Nc2ncc(C(F)(F)F)c(NC3CC3)n2)cc1 [compound 367]
19 | 1.99** | CC(=O)c1ccc(Nc2ncc(Cl)c(NC3CC3)n2)cc1.Cl [Example 45]
20 | 1.72** | Cc1cc(C)nc(NS(=O)(=O)c2ccc(Nc3ncc(Cl)c(NC4CC4)n3)cc2)n1 [compound 26]
21 | 2.56** | O=S(=O)(Nc1ccccc1)c1ccc(Nc2ncc(Cl)c(NC3CC3)n2)cc1 [compound 27]

same assay, conditions: method **: HPLC reversed-phase C 18, temperature 43° C.; mobile phase 0.1% aqueous phosphoric acid and acetonitrile; linear gradient 10% to 95% acetonitrile

Row | logP | SMILES
22 | 2.41** | COc1ccc(Nc2ncc(C(F)(F)F)c(NC3CC3)n2)cc1 [compound 641]

same assay, conditions: method **: HPLC, reversed-phase C 18, 43° C., mobile phase 0.1% aqueous phosphoric acid and acetonitrile, linear gradient from 10% to 95% acetonitrile

Row | logP | SMILES
23 | 3.69** | N#Cc1cc(Nc2ncc(Cl)c(NC3CC3)n2)cc(C(F)(F)F)c1 [compound 1017]
24 | 4.78** | COc1ccc(CN(c2nc(Nc3cccc(SC)c3)ncc2Cl)C2CC2)cc1 [compound 1026]
25 | 0.92** | Clc1cnc(Nc2cccc(CN3CCCC3)c2)nc1NC1CC1 [compound 1043]

same assay, conditions: method *: HPLC reversed-phase C18, 40° C., 0.1% aqueous formic acid and acetonitrile, linear gradient 10% to 95% acetonitrile

Row | logP | SMILES
26 | 2.84* | FC(F)(F)Oc1ccc(Nc2ncc(Cl)c(NC3CC3)n2)cc1 [compound 375]
27 | 1.73* | COc1cc(Nc2ncc(Cl)c(NC3CC3)n2)cc(OC)c1OC [Example 4]
28 | 2.26* | CN(C)S(=O)(=O)c1ccc(Nc2ncc(Cl)c(NC3CC3)n2)cc1.Cl [Example 78]
29 | 1.94*; | O=C1OCCN1c1ccc(Nc2ncc(C(F)(F)F)c(NC3CC3)n2)cc1 [compound 367]
30 | 2.18* | O=S(=O)(Cc1ccc(Nc2ncc(Cl)c(NC3CC3)n2)cc1)Nc1ccccc1 [compound 369]

same assay, conditions: method *: HPLC reversed-phase C 18, temperature 40° C.; mobile phase 0.1% aqueous formic acid and acetonitrile; linear gradient 10% to 95% acetonitrile

Row | logP | SMILES
31 | 3.42* | Fc1cc(F)cc(Nc2ncc(Cl)c(NCC3CC3)n2)c1 [compound 603]
32 | 1.37* | COC(=O)Nc1cccc(Nc2ncc(F)c(NC3CC3)n2)c1 [compound 598]
33 | 1.92* | CS(=O)(=O)c1ccc(Nc2ncc(C#N)c(NC3CC3)n2)cc1 [compound 605]
34 | 2.21*; | COc1ccc(Nc2ncc(C(F)(F)F)c(NC3CC3)n2)cc1 [compound 641]

same assay, conditions: method *: HPLC, reversed-phase C 18, 40° C., mobile phase 0.1% aqueous formic acid and acetonitrile, linear gradient from 10% to 95% acetonitrile

Row | logP | SMILES
35 | 1.86* | CC1CCCN1C(=O)c1cccc(Nc2ncc(Cl)c(NC3CC3)n2)c1 (centres unmarked) [compound 1062]
36 | 2.65* | Brc1cnc(Nc2ccccc2)nc1NC1CC1 [compound 1069]
37 | 1.66* | Clc1cnc(Nc2ccc3ncsc3c2)nc1NC1CC1 [compound 995]
38 | 1.43* | O=C(c1cccc(Nc2ncc(Cl)c(NC3CC3)n2)c1)N1CCC1 [compound 1063]
